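Test compounds were applied to cells in 96-well plates for 48 hours at 5 doses. The concentration for 50% growth inhibition is given as GI50.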 The source made the active and inactive calls. Rule as the data show it: active = GI50 up to about 1.1 µM and inactive = higher.
How the values were obtained:
Test in all cases: NCI-60 cell line screen, 48 h
A498 = tested on: A498
A549 = tested on: A549
CCRF-CEM = tested on: CCRF-CEM
COLO 205 = tested on: COLO 205
HCC 2998 = tested on: HCC 2998
HOP-62 = tested on: HOP-62
HOP-92 = tested on: HOP-92
IGROV-1 = tested on: IGROV-1
KM-20L2 = tested on: KM-20L2
LOX IMVI = tested on: LOX IMVI
NCI-H226 = tested on: NCI-H226
NCI-H460 = tested on: NCI-H460
OVCAR-5 = tested on: OVCAR-5
RPMI-8226 = tested on: RPMI-8226
RXF 393 = tested on: RXF 393
SN12C = tested on: SN12C
SNB-19 = tested on: SNB-19
SR = tested on: SR
SW-620 = tested on: SW-620
BT-549 = tested on: BT-549

Structure (SMILES)	GI50 (A498)	GI50 (A549)	GI50 (CCRF-CEM)	GI50 (COLO 205)	GI50 (HCC 2998)	GI50 (HOP-62)	GI50 (HOP-92)	GI50 (IGROV-1)	GI50 (KM-20L2)	GI50 (LOX IMVI)	GI50 (NCI-H226)	GI50 (NCI-H460)	GI50 (OVCAR-5)	GI50 (RPMI-8226)	GI50 (RXF 393)	GI50 (SN12C)	GI50 (SNB-19)	GI50 (SR)	GI50 (SW-620)	GI50 (BT-549)
O=Cc1ccccc1OCCOc1cc(OCCOc2ccccc2C=O)c(OCCOc2ccccc2C=O)cc1OCCOc1ccccc1C=O	> 100 µM (inactive)	> 100 µM (inactive)	> 37.1 µM (inactive)	> 100 µM (inactive)	> 100 µM (inactive)	70.3 µM (inactive)	26.2 µM (inactive)	> 62.8 µM (inactive)	> 100 µM (inactive)	36.5 µM (inactive)	> 54.8 µM (inactive)	> 67.9 µM (inactive)	> 100 µM (inactive)	90.6 µM (inactive)	29.6 µM (inactive)	> 100 µM (inactive)	> 31.6 µM (inactive)	39.8 µM (inactive)	46.5 µM (inactive)	
O=C(CCCCCCCCCCc1ccccc1)C1=C(O)CC(O)CC1=O (stereo not drawn)		42.1 µM (inactive)	45.1 µM (inactive)	45.2 µM (inactive)	34.9 µM (inactive)	> 100 µM (inactive)	33.3 µM (inactive)	72.4 µM (inactive)	55 µM (inactive)	48.2 µM (inactive)	24 µM (inactive)	46.3 µM (inactive)	39.5 µM (inactive)	34.8 µM (inactive)	> 100 µM (inactive)	96.2 µM (inactive)	88.5 µM (inactive)	40.9 µM (inactive)	76.9 µM (inactive)	
Cc1nc2c(c(=O)[nH]1)S/C(=C(/C#N)c1nc3ccccc3[nH]1)N2c1ccccc1	> 100 µM (inactive)	> 100 µM (inactive)	> 100 µM (inactive)	> 100 µM (inactive)	> 100 µM (inactive)	> 100 µM (inactive)	> 100 µM (inactive)	> 100 µM (inactive)	> 100 µM (inactive)			> 100 µM (inactive)	> 100 µM (inactive)	> 100 µM (inactive)	> 100 µM (inactive)	> 100 µM (inactive)	> 100 µM (inactive)	> 100 µM (inactive)	> 100 µM (inactive)	
CCN(CC)C(=O)Cc1[nH][nH]c(=O)c1C(=O)N(CC)CC	> 100 µM (inactive)	> 100 µM (inactive)	> 100 µM (inactive)	> 100 µM (inactive)	> 100 µM (inactive)	> 100 µM (inactive)	> 100 µM (inactive)	> 100 µM (inactive)	> 100 µM (inactive)	> 100 µM (inactive)	> 100 µM (inactive)	> 100 µM (inactive)		> 100 µM (inactive)	> 100 µM (inactive)	> 100 µM (inactive)	> 100 µM (inactive)	> 100 µM (inactive)	> 100 µM (inactive)	
CC(=O)CC(=O)/C=C/c1cccs1	64.9 µM (inactive)	> 100 µM (inactive)	38.5 µM (inactive)	> 100 µM (inactive)		> 100 µM (inactive)		> 100 µM (inactive)	98.6 µM (inactive)	55.2 µM (inactive)	> 100 µM (inactive)	64.1 µM (inactive)	> 100 µM (inactive)	34.6 µM (inactive)		63 µM (inactive)	> 100 µM (inactive)	48.1 µM (inactive)	70.1 µM (inactive)	
CN/N=C(\C(=O)Nc1ccc(C)c(C)c1)C(C(=O)OC)c1nc2ccc([N+](=O)[O-])cc2nc1O (stereo not drawn)	> 100 µM (inactive)	> 100 µM (inactive)	> 100 µM (inactive)	> 100 µM (inactive)	> 100 µM (inactive)	> 100 µM (inactive)	> 100 µM (inactive)	> 100 µM (inactive)	> 100 µM (inactive)	> 100 µM (inactive)	> 100 µM (inactive)	> 100 µM (inactive)	> 100 µM (inactive)	52.7 µM (inactive)	> 100 µM (inactive)	> 100 µM (inactive)	> 100 µM (inactive)	> 100 µM (inactive)	> 100 µM (inactive)	
Cc1ccc(NP(=O)(Oc2ccccc2)N(CCCl)CCCl)cc1 (stereo not drawn)	58.7 µM (inactive)	48.2 µM (inactive)		31.6 µM (inactive)	3.56 µM (inactive)	> 100 µM (inactive)	96.4 µM (inactive)	90.8 µM (inactive)	76.7 µM (inactive)		39.6 µM (inactive)		39.3 µM (inactive)	5.5 µM (inactive)		91 µM (inactive)		95.5 µM (inactive)	> 100 µM (inactive)	
COc1ccc(/C=C/C(=O)C(C)C)cc1	35.5 µM (inactive)	69.2 µM (inactive)	35.9 µM (inactive)	40 µM (inactive)	> 100 µM (inactive)	43.8 µM (inactive)	54.8 µM (inactive)	> 100 µM (inactive)	25.1 µM (inactive)	32.9 µM (inactive)		26.8 µM (inactive)	> 100 µM (inactive)			54.3 µM (inactive)	46.7 µM (inactive)	25.2 µM (inactive)	33 µM (inactive)	
Nc1ncnc2c1ncn2C1CC(OC2CCCCO2)C(CO)O1 (stereo not drawn)	> 100 µM (inactive)	> 100 µM (inactive)	> 100 µM (inactive)	> 100 µM (inactive)	> 100 µM (inactive)	> 100 µM (inactive)	> 100 µM (inactive)	> 100 µM (inactive)	> 100 µM (inactive)	> 100 µM (inactive)	> 100 µM (inactive)	> 100 µM (inactive)	> 100 µM (inactive)	> 100 µM (inactive)	> 100 µM (inactive)	> 100 µM (inactive)	> 100 µM (inactive)	> 100 µM (inactive)	> 100 µM (inactive)	
O=C1Nc2cc([N+](=O)[O-])c(Br)cc2C1=O	> 100 µM (inactive)	95.7 µM (inactive)	6.01 µM (inactive)	18.4 µM (inactive)	> 10 µM (inactive)	28.4 µM (inactive)	24.5 µM (inactive)	17.5 µM (inactive)	15.3 µM (inactive)	18.5 µM (inactive)	18.5 µM (inactive)	30.5 µM (inactive)		17.6 µM (inactive)	24.7 µM (inactive)	18.4 µM (inactive)	> 10 µM (inactive)	10.2 µM (inactive)	19.3 µM (inactive)	
CCOC(=O)CN1C(=O)c2cccc3cc([N+](=O)[O-])cc(c23)C1=O	16.8 µM (inactive)	13.1 µM (inactive)	0.287 µM (active)		4.23 µM (inactive)	18.2 µM (inactive)	2.19 µM (inactive)	3.97 µM (inactive)	13.3 µM (inactive)	1.43 µM (inactive)	10.7 µM (inactive)	4.89 µM (inactive)	15.5 µM (inactive)	1.81 µM (inactive)	1.84 µM (inactive)	4.93 µM (inactive)	18.2 µM (inactive)	0.0525 µM (active)	1.59 µM (inactive)	
COC(=O)/C(=N/NC(N)=O)C(C(=O)OC)C(=O)C(=O)Nc1ccc(Cl)cc1 (stereo not drawn)	> 100 µM (inactive)	> 100 µM (inactive)	> 50.1 µM (inactive)	> 100 µM (inactive)	> 100 µM (inactive)	> 100 µM (inactive)	> 100 µM (inactive)	> 100 µM (inactive)	> 100 µM (inactive)	> 83.2 µM (inactive)	> 100 µM (inactive)	> 71.3 µM (inactive)	> 100 µM (inactive)	> 100 µM (inactive)	> 100 µM (inactive)	> 100 µM (inactive)	> 100 µM (inactive)	20.8 µM (inactive)	> 100 µM (inactive)	
Cc1c2cc[n+](COC(=O)c3ccccc3)cc2c(C)c2c1[nH]c1ccccc12	1.23 µM (inactive)	0.299 µM (active)	0.434 µM (active)	0.43 µM (active)		1.31 µM (inactive)	0.682 µM (active)	0.299 µM (active)	0.641 µM (active)	0.436 µM (active)			0.824 µM (active)	0.569 µM (active)		0.533 µM (active)	0.778 µM (active)	0.212 µM (active)	0.383 µM (active)	
CCCCCCCCCC(=O)OCC1OC(n2cc(F)c(=O)[nH]c2=O)C(N)C(OC(=O)CCCCCCCCC)C1O (stereo not drawn)	15.5 µM (inactive)	18 µM (inactive)	18.5 µM (inactive)	17.5 µM (inactive)	15.5 µM (inactive)	37.2 µM (inactive)	20.6 µM (inactive)	> 100 µM (inactive)	19 µM (inactive)	16.5 µM (inactive)		19.4 µM (inactive)		21.5 µM (inactive)	15.9 µM (inactive)	16.9 µM (inactive)	17.4 µM (inactive)	19.7 µM (inactive)	17.4 µM (inactive)	
COc1cccc2c1C(=O)c1c(O)c3c(c(O)c1C2=O)C[C@@](O)(C(=O)CO)CC3OC1CC(N)C(OC2CCCCO2)C(C)O1 (stereo partly drawn)	0.309 µM (active)	0.256 µM (active)	0.168 µM (active)	1.21 µM (inactive)	7.19 µM (inactive)	0.144 µM (active)	0.0715 µM (active)	0.929 µM (active)	0.561 µM (active)	0.356 µM (active)	0.419 µM (active)	0.0134 µM (active)	1.71 µM (inactive)	0.33 µM (active)	1.48 µM (inactive)	1.27 µM (inactive)	0.437 µM (active)	0.0314 µM (active)	0.265 µM (active)	0.176 µM (active)
